What was measured:
α-adrenergic receptor [1] = experiment: α-adrenergic receptor blocking activity in vitro, isolated rabbit aortic strip, norepinephrine agonist; type: cell-based
Method: (§1) α-Adrenergic receptor blocking activity is determined in vitro by performing cumulative dose-response experiments in the isolated rabbit aortic strip preparation using norepinephrine as the agonist. The contractile response of the rabbit strip preparation in the presence of logarithmically increasing concentrations of the compounds being tested are expressed as percent of the maximal attainable […]. Relative antagonistic potency is expressed as a pA2 value.

β-adrenergic receptor = target: T1, β-adrenergic receptor (Cavia porcellus, UniProt H0W3H1); experiment: β-adrenergic receptor blocking activity in vitro, isolated guinea pig atria, isoproterenol agonist; type: cell-based; settings: for Kb: read-out: pA2 β (converted)
T1 construct: isolated guinea pig atria preparation; from tissue; host or cells: isolated guinea pig atria
Method: as §1
β-Adrenergic receptor blocking activity is determined in vitro by performing cumulative dose-response experiments in the isolated guinea pig atria preparation using isoproterenol as the agonist. The response (increase in rate) of the guinea pig atria preparation in the presence of logarithmically increasing concentrations of the compounds being tested are expressed as percent of the maximal attainable response. Relative antagonistic potency is expressed as a pA2 value, as defined above.

guinea pig ileum = experiment: direct spasmolytic activity in vitro, isolated guinea pig ileum, barium chloride agonist; type: cell-based
Method: as §1, with “value. […] Direct spasmolytic activity is determined in vitro by performing cumulative dose response experiments in the isolated guinea pig ileum preparation using barium chloride as the agonist. The contractile response of the guinea pig ileum preparation in the presence of logarithmically increasing concentrations of the compounds being tested are expressed as percent of the maximal attainable response. Relative antagonistic potency is expressed as a pA2 value, as defined above.” for “value.”

α-adrenergic receptor [2] = experiment: α-adrenergic receptor blocking activity in vivo, anesthetized dog, phenylephrine agonist; settings: iv
Method: (§2) α-Adrenergic receptor blocking activity is determined in vivo by performing cumulative dose-response experiments in the anesthetized dog using phenylephrine as the agonist. The increase in diastolic blood pressure produced by phenylephrine is determined in the absence and again in the presence of logarithmically increasing doses of the test compound. Relative antagonistic potency is expressed as DR10. DR10 is defined as the negative logarithm of the dose of the antagonist which increased by 10 times the dose of agonist necessary to produce 50% of the maximal attainable response.

[3] = tested on: β-adrenergic receptor (β1); experiment: β-adrenergic receptor blocking activity in vivo, isoproterenol agonist, increase in cardiac rate (β1); settings: anesthetized dog, iv
Method: as §2, with “response. […] Two responses, increase in cardiac rate (β1) and decrease in diastolic blood pressure (β2) are measured.” for “response.”

[4] = tested on: β-adrenergic receptor (β2); experiment: β-adrenergic receptor blocking activity in vivo, isoproterenol agonist, decrease in diastolic blood pressure (β2); settings: anesthetized dog, iv
Method: as §2, with “response. […] Two responses, increase in cardiac rate (β1) and decrease in diastolic blood pressure (β2) are measured.” for “response.”

[5] = tested on: spontaneously hypertensive rats (SHR); experiment: antihypertensive activity in spontaneously hypertensive rats, systolic blood pressure; type: in vivo, rat; settings: 50 mg/kg per os
Method: Antihypertensive activity is determined in spontaneously hypertensive rats (SHR) of the Okomoto-Aoki strain. Systolic blood pressure of the SHR is measured from the caudal artery by means of an indirect method utilizing a photocell transducer/tail cuff occluder system. Time response relationships are determined for each compound following an oral dose of 50 mg/kg. Data are expressed as mm of Hg decrease from control values. Statistical significance is determined using a 2 tailed "t" test comparing drug treatment response values to those obtained from concurrent vehicle treated animals.

T1 sequence (H0W3H1 1-470): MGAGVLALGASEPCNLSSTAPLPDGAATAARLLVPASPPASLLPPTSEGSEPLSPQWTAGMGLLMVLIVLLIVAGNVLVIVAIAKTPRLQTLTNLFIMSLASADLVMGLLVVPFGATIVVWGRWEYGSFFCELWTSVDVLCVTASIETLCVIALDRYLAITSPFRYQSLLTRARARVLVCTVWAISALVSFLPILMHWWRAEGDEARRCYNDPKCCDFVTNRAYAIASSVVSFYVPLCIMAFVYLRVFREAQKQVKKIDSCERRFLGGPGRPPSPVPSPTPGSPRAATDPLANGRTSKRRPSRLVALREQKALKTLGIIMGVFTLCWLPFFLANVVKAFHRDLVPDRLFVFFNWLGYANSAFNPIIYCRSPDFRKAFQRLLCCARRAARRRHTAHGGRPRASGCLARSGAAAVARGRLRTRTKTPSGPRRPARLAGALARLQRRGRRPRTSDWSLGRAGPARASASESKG

| SMILES | Kb (β-adrenergic receptor) [nM] | pA2 β (β-adrenergic receptor) | pA2 α (α-adrenergic receptor [1]) | pA2 BaCl2 (guinea pig ileum) | DR10 (α) (α-adrenergic receptor [2]) [mg/kg iv] | DR10 (β1), increase in cardiac rate [3] [mg/kg iv] | DR10 (β2), decrease in diastolic blood pressure [4] [mg/kg iv] | Fall in Blood Pressure After: 1 hour [5] [mm Hg] | Fall in Blood Pressure After: 4 hours [5] [mm Hg] |
| --- | --- | --- | --- | --- | --- | --- | --- | --- | --- |
| COC(=O)c1cc(C(O)CN2CCN(c3ccccc3C)CC2)ccc1O.Cl (stereo not drawn) [Compound 1, methyl 2-hydroxy-5-[1-hydroxy-2-[4-(2-methylphenyl)-1-piperazinyl]ethyl]benzoate hydrochloride] | 162 |  | 7.45 | 6.06 |  |  |  |  |  |
| Cc1ccccc1N1CCN(CC(O)c2ccc(O)c(C(N)=O)c2)CC1.Cl (stereo not drawn) [Compound 2, 2-hydroxy-5-[1-hydroxy-2-[4-(2-methylphenyl)-1-piperazinyl]ethyl]benzamide monohydrochloride] | 200 |  | 7.57 | 5.73 | 1.09 | 15.3 | > 10 | 48 | 37 |
| Cl.NC(=O)c1cc(C(O)CN2CCN(c3cccc(C(F)(F)F)c3)CC2)ccc1O (stereo not drawn) [Compound 3, 2-hydroxy-5-[1-hydroxy-2-[4-[3-(trifluoromethyl)phenyl]-1-piperazinyl]ethyl]benzamide monohydrochloride] | 126 |  | 6.33 | 5.74 |  |  |  |  |  |
| COc1ccc(N2CCN(CC(O)c3ccc(O)c(C(N)=O)c3)CC2)cc1.Cl.Cl (stereo not drawn) [Compound 4, 2-hydroxy-5-[1-hydroxy-2-[4-(4-methoxyphenyl)-1-piperazinyl]ethyl]benzamide dihydrochloride] | 1450 |  | 6.13 | < 4.28 |  |  |  |  |  |
| Cl.NC(=O)c1cc(C(O)CN2CCN(c3ccc(Cl)cc3)CC2)ccc1O.O (stereo not drawn) [Compound 5, 5-[2-[4-(4-chlorophenyl)-1-piperazinyl]-1-hydroxyethyl]-2-hydroxybenzamide monohydrochloride, monohydrate] | 676 |  | 6.87 | 4.58 |  |  |  | 49 | 56 |
| Cl.NC(=O)c1cc(C(O)CN2CCN(c3ccccc3)CC2)ccc1O.O (stereo not drawn) [Compound 6, 2-hydroxy-5-[1-hydroxy-2-(4-phenyl-1-piperazinyl)ethyl]benzamide monohydrochloride hydrate] |  | stimulant | 7.04 | 4.19 |  |  |  |  |  |
| COc1ccccc1N1CCN(CC(O)c2ccc(O)c(C(N)=O)c2)CC1.Cl (stereo not drawn) [Compound 7, 2-hydroxy-5-[1-hydroxy-2-[4-(2-methoxyphenyl)-1-piperazinyl]ethyl]benzamide monohydrochloride] | 363 |  | 7.42 | 4.87 |  |  |  | 45 | 35 |
| Cc1ccc(N(CC2=NCCN2)c2cccc(O)c2)cc1 [phentolamine, reference compound] |  |  |  |  | 2.65 |  |  |  |  |

Now from value to molecule, other results behind:

| Kb (β-adrenergic receptor) [nM] | pA2 β (β-adrenergic receptor) | SMILES | pA2 α (α-adrenergic receptor [1]) | pA2 BaCl2 (guinea pig ileum) | DR10 (α) (α-adrenergic receptor [2]) [mg/kg iv] | DR10 (β1), increase in cardiac rate [3] [mg/kg iv] | DR10 (β2), decrease in diastolic blood pressure [4] [mg/kg iv] | Fall in Blood Pressure After: 1 hour [5] [mm Hg] | Fall in Blood Pressure After: 4 hours [5] [mm Hg] |
| --- | --- | --- | --- | --- | --- | --- | --- | --- | --- |
| 4270 |  | Cl.NC(=O)c1cc(C(O)CN2CCN(c3ccccn3)CC2)ccc1O.O (stereo not drawn) [Compound 8, 2-hydroxy-5-[1-hydroxy-2-[4-(2-pyridinyl)-1-piperazinyl]ethyl]benzamide monohydrochloride hydrate] | 6.08 | 3.90 |  |  |  |  |  |
| 6760 |  | CNC(=O)c1cc(C(O)CN2CCN(c3ccc(OC)cc3)CC2)ccc1O.Cl.O (stereo not drawn) [Compound 9, 2-hydroxy-5-[1-hydroxy-2-[4-(4-methoxyphenyl)-1-piperazinyl]ethyl]-N-methylbenzamide monohydrochloride hydrate] | 5.47 | 4.82 |  |  |  |  |  |
|  | stimulant | CNC(=O)c1cc(C(O)CN2CCN(c3ccccc3OC)CC2)ccc1O.Cl.O (stereo not drawn) [Compound 10, 2-hydroxy-5-[1-hydroxy-2-[4-(2-methoxyphenyl)-1-piperazinyl]ethyl]-N-methylbenzamide monohydrochloride monohydrate] | 7.95 | 5.02 |  |  |  | 44 | 52 |
| 468 |  | Cc1ccccc1N1CCN(CC(O)c2ccc(O)c(C(=O)NCC(C)(C)C)c2)CC1.Cl (stereo not drawn) [Compound 11, N-(2,2-dimethylpropyl)-2-hydroxy-5-[1-hydroxy-2-[4-(2-methylphenyl)-1-piperazinyl]ethyl]benzamide monohydrochloride] | 7.21 | 6.65 |  |  |  | 41 | 32 |
| > 10000 |  | COc1ccc(C(O)CN2CCN(c3ccccc3)CC2)cc1C(N)=O.Cl (stereo not drawn) [Compound 12, 5-[1-hydroxy-2-(4-phenyl-1-piperazinyl)ethyl]-2-methoxybenzamide monohydrochloride] | 6.54 | 4.19 |  |  |  | 33 | 25 |
| 5370 |  | CCOc1ccc(C(O)CN2CCN(c3ccccc3)CC2)cc1C(N)=O.Cl (stereo not drawn) [Compound 13, 2-ethoxy-5-[1-hydroxy-2-(4-phenyl-1-piperazinyl)ethyl]benzamide monohydrochloride] | 6.27 | 4.67 |  |  |  |  |  |
| 724 |  | Cc1ccccc1N1CCN(CC(O)c2ccc(O)c(-c3nnn[nH]3)c2)CC1.Cl.O (stereo not drawn) [Compound 14, α-(4-Hydroxy-3-1H-tetrazol-5-ylphenyl)-4-(2-methylphenyl)-1-piperazineethanol Monohydrochloride Monohydrate] | 7.56 | < 4 |  |  |  | 48 |  |
|  | stimulant | CC(CCc1ccccc1)NC(C)C(O)c1ccc(O)cc1 (stereo not drawn) [nylidrine, reference compound] |  |  |  |  |  |  |  |

— US4255575A, “2-Hydroxy-5-(1-hydroxy-2-piperazinylethyl)-benzoic acid derivatives” (priority 1979, dated 1981)
